Test results published in patent US10287288B2, “Factor XIa macrocyclic inhibitors bearing alkyl or cycloalkyl P2' moieties” (BRISTOL-MYERS SQUIBB COMPANY, priority 2015, dated 2019).
Like-named read-outs stand apart in the source and are kept apart here.

What was measured:
[1] = target: T1, purified human Factor XIa (Homo sapiens, UniProt P03951); assay: Factor XIa inhibition assay (chromogenic substrate hydrolysis, Ki); format: biochemical; conditions: substrate S-2366, pH 7.4
T1 construct: purchased Haematologic Technologies

[2] = target: T2, purified human plasma kallikrein (Homo sapiens, UniProt P03952); assay: Plasma kallikrein inhibition assay (chromogenic substrate hydrolysis, Ki); format: biochemical; conditions: substrate S-2302, pH 7.5
T2 construct: Plasma prekallikrein is a zymogen of a trypsin-like serine protease; purchased Enzyme Research Laboratories

[3] = rcm bond

T2 sequence (P03952 391-638 limits assumed): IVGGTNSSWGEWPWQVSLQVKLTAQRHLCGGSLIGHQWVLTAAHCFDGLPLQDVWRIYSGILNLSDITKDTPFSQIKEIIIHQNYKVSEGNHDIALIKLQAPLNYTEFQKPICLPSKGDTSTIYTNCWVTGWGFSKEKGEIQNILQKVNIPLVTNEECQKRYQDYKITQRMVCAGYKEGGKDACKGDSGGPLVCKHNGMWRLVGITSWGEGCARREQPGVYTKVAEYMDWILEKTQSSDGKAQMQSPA
T2 sequence (P03952 20-390 partner limits assumed): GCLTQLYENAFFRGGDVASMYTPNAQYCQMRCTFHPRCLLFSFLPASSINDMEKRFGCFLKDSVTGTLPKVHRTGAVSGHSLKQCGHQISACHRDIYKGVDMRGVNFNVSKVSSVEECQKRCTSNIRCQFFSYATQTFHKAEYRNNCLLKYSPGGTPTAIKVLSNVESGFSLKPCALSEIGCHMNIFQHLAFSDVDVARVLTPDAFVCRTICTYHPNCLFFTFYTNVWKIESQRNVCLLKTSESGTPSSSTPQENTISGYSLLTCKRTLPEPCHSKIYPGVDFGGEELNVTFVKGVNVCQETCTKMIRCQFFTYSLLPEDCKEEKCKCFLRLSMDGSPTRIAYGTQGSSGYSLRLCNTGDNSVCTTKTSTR
T1 sequence (P03951 388-625 limits assumed): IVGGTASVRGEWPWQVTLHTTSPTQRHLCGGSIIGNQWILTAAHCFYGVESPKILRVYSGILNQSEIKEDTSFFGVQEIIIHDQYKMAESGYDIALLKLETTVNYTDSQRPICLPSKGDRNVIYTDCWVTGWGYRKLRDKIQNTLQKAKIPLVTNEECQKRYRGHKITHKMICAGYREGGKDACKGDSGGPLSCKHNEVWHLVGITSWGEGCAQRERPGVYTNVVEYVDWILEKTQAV
T1 sequence (P03951 19-387 partner limits assumed): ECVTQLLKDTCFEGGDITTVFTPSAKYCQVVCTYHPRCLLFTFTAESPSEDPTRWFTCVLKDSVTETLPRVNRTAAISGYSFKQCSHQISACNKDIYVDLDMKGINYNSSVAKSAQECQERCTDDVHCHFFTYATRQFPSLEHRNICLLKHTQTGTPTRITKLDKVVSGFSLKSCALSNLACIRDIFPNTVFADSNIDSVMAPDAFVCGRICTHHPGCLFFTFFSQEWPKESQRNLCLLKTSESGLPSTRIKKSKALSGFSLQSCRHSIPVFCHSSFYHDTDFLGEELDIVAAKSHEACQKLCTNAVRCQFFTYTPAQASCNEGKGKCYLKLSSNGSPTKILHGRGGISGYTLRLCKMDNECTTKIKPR

C[C@@H]1CCC[C@H](n2cnc(-c3cc(Cl)ccc3-n3cc(C(F)(F)F)nn3)cc2=O)c2cccc(c2)C[C@H](CC#N)NC1=O [Example 5, 2-[(3R,6R,10S)-10-(4-{5-chloro-2-[4-(trifluoromethyl)-1H-1,2,3-triazol-1-yl]phenyl}-6-oxo-1,6-dihydropyrimidin-1-yl)-6-methyl-5-oxo-4-azabicyclo[9.3.1]pentadeca-1(15),11,13-trien-3-yl]acetonitrile]
Ki [1]: 284 nM | Ki [2]: 4210 nM

C[C@@H]1/C=C/C[C@H](NC(=O)OC(C)(C)C)c2cc(ccn2)C(C)(C)CNC1=O
ring closure, isolated yield ([3]; from C=CC[C@H](NC(=O)OC(C)(C)C)c1cc(C(C)(C)CNC(=O)[C@H](C)C=C)ccn1, 12-membered ring, Grubbs II (0.4 eq), microwave 30 min, DCE, 49.8 mM, 120.0 °C, 0.5 h): 43%

O=C1CCCc2ccnc(c2)[C@@H](n2cnc(-c3cc(Cl)ccc3-n3cc(Cl)nn3)cc2=O)CCCCCN1 [Example 32, (12S)-12-{4-[5-Chloro-2-(4-chloro-1H-1,2,3-triazol-1-yl)phenyl]-6-oxo-1,6-dihydropyrimidin-1-yl}-6,14-diazabicyclo[11.3.1]heptadeca-1(17),13,15-trien-5-one]
Ki [1]: 27.8 nM | Ki [2]: 1890 nM

CC(C)(C)OC(=O)N[C@H]1CC=CCCNC(=O)[C@@H]2C[C@@H]2c2ccnc1c2
ring closure, isolated yield ([3]; from C=CCCNC(=O)[C@@H]1C[C@@H]1c1ccnc([C@H](CC=C)NC(=O)OC(C)(C)C)c1, 13-membered ring, Grubbs II (0.2 eq)/pTsOH, DCM, 4.7 mM, 40.0 °C, 2.0 h): 65%

COC(=O)NCC[C@H]1Cc2cccc(c2)[C@@H](n2cnc(-c3cc(Cl)ccc3-n3cc(C(F)(F)F)nn3)cc2=O)CCC[C@@H](C)C(=O)N1 [Example 4, methyl N-{2-[(3R,6R,10S)-10-(4-{5-chloro-2-[4-(trifluoromethyl)-1H-1,2,3-triazol-1-yl]phenyl}-6-oxo-1,6-dihydropyrimidin-1-yl)-6-methyl-5-oxo-4-azabicyclo[9.3.1]pentadeca-1(15),11,13-trien-3-yl]ethyl}carbamate]
Ki [1]: 130 nM | Ki [2]: 8270 nM

C[C@@H]1CCC[C@H](n2cnc(-c3cc(Cl)ccc3-n3cc(C(F)(F)F)nn3)cc2=O)c2cccc(c2)C[C@@H](CC#N)NC1=O [Example 9, 2-[(3S,6R,10S)-10-(4-{5-chloro-2-[4-(trifluoromethyl)-1H-1,2,3-triazol-1-yl]phenyl}-6-oxo-1,6-dihydropyrimidin-1-yl)-6-methyl-5-oxo-4-azabicyclo[9.3.1]pentadeca-1(15),11,13-trien-3-yl]acetonitrile]
Ki [1]: 5 nM | Ki [2]: 1290 nM

C[C@@H]1/C=C/C[C@H](NC(=O)OCc2ccccc2)c2cccc(c2)C[C@H](CC#N)NC1=O
ring closure, isolated yield ([3]; from C=CC[C@H](NC(=O)OCc1ccccc1)c1cccc(C[C@H](CC#N)NC(=O)[C@H](C)C=C)c1, 12-membered ring, Grubbs II (0.2 eq), microwave 30 min, DCE, 8.5 mM, 120.0 °C, 0.5 h): 56.2%

CNC(=O)OC[C@H]1Cc2cccc(c2)[C@@H](n2cnc(-c3cc(Cl)ccc3-n3cc(C(F)(F)F)nn3)cc2=O)CCC[C@@H](C)C(=O)N1 [Example 3, [(3R,6R,10S)-10-(4-{5-chloro-2-[4-(trifluoromethyl)-1H-1,2,3-triazol-1-yl]phenyl}-6-oxo-1,6-dihydropyrimidin-1-yl)-6-methyl-5-oxo-4-azabicyclo[9.3.1]pentadeca-1(15),11,13-trien-3-yl]methyl N-methylcarbamate]
Ki [1]: 109 nM

C[C@@H]1CCC[C@H](n2cnc(-c3cc(Cl)ccc3-n3cc(C(F)(F)F)nn3)cc2=O)c2cccc(c2)C[C@H](CO)NC1=O [Example 2, (3R,6R,10S)-10-(4-{5-chloro-2-[4-(trifluoromethyl)-1H-1,2,3-triazol-1-yl]phenyl}-6-oxo-1,6-dihydropyrimidin-1-yl)-3-(hydroxymethyl)-6-methyl-4-azabicyclo[9.3.1]pentadeca-1(15),11,13-trien-5-one]
Ki [1]: 445 nM

CC(=O)N1CCCC2NC(=O)[C@H](C)CCC[C@H](n3cnc(-c4c(-n5cc(Cl)nn5)ccc(Cl)c4F)cc3=O)c3cccc(c3)C21 (single isomer, unassigned) [Example 25]
Ki [1]: 1420 nM

COC(=O)[C@H]1Cc2cccc(c2)[C@@H](n2cnc(-c3cc(Cl)ccc3-n3cc(Cl)nn3)cc2=O)CCC[C@@H](C)C(=O)N1 [Example 1, methyl (3R,6R,10S)-10-{4-[5-chloro-2-(4-chloro-1H-1,2,3-triazol-1-yl)phenyl]-6-oxo-1,6-dihydropyrimidin-1-yl}-6-methyl-5-oxo-4-azabicyclo[9.3.1]pentadeca-1(15),11,13-triene-3-carboxylate]
Ki [1]: 53 nM

O=C1NCC/C=C/C[C@H](n2cnc(-c3cc(Cl)ccc3-n3cc(Cl)nn3)cc2=O)c2cc(ccn2)[C@H]2C[C@@H]12 [Example 33, (2S,4R,9E,12S)-12-{4-[5-Chloro-2-(4-chloro-1H-1,2,3-triazol-1-yl)phenyl]-6-oxo-1,6-dihydropyrimidin-1-yl}-6,14-diazatricyclo[11.3.1.0^2,^4]heptadeca-1(17),9,13,15-tetraen-5-one]
Ki [1]: 355 nM | Ki [2]: 3610 nM

O=C1NCCCCC[C@H](n2cnc(-c3cc(Cl)ccc3-n3cc(Cl)nn3)cc2=O)c2cc(ccn2)[C@H]2C[C@@H]12 [Example 31, (2S,4R,12S)-12-{4-[5-Chloro-2-(4-chloro-1H-1,2,3-triazol-1-yl)phenyl]-6-oxo-1,6-dihydropyrimidin-1-yl}-6,14-diazatricyclo[11.3.1.0^2,^4]heptadeca-1(17),13,15-trien-5-one]
Ki [1]: 12.7 nM | Ki [2]: 81.4 nM

C[C@@H]1CCC[C@H](n2cnc(-c3cc(Cl)ccc3-n3cc(C(F)(F)F)nn3)cc2=O)c2cccc(c2)C2C(CCCN2C)NC1=O (single isomer, unassigned) [Example 28]
Ki [1]: 1130 nM | Ki [2]: 11200 nM

COC(=O)NCC[C@@H]1Cc2cccc(c2)[C@@H](n2cnc(-c3cc(Cl)ccc3-n3cc(C(F)(F)F)nn3)cc2=O)CCC[C@@H](C)C(=O)N1 [Example 8, methyl N-{2-[(3S,6R,10S)-10-(4-{5-chloro-2-[4-(trifluoromethyl)-1H-1,2,3-triazol-1-yl]phenyl}-6-oxo-1,6-dihydropyrimidin-1-yl)-6-methyl-5-oxo-4-azabicyclo[9.3.1]pentadeca-1(15),11,13-trien-3-yl]ethyl}carbamate]
Ki [1]: ≤ 5 nM | Ki [2]: 1790 nM

CC(=O)N1CCCC2NC(=O)[C@H](C)CCC[C@H](n3cnc(-c4c(-n5cc(Cl)nn5)ccc(Cl)c4F)cc3=O)c3cccc(c3)C21 (single isomer, unassigned) [Example 26]
Ki [1]: 120 nM | Ki [2]: 6970 nM

C[C@@H]1CCC[C@H](n2cnc(-c3cc(Cl)ccc3-n3cc(C(F)(F)F)nn3)cc2=O)c2cccc(c2)C2C(CCCN2C)NC1=O (single isomer, unassigned) [Example 27]
Ki [1]: < 5 nM | Ki [2]: 409 nM

Cc1c(C(=O)N[C@H]2CCC[C@@H](C)C(=O)N[C@@H](CC#N)Cc3cccc2c3)ncn1-c1cccc(Cl)c1F [Example 6, 1-(3-chloro-2-fluorophenyl)-N-[(3R,6R,10S)-3-(cyanomethyl)-6-methyl-5-oxo-4-azabicyclo[9.3.1]pentadeca-1(15),11,13-trien-10-yl]-5-methyl-1H-imidazole-4-carboxamide]
Ki [1]: 986 nM | Ki [2]: 6200 nM

COC(=O)[C@H]1Cc2cccc(c2)[C@@H](NC(=O)OCc2ccccc2)C/C=C/[C@@H](C)C(=O)N1
ring closure, isolated yield ([3]; from C=CC[C@H](NC(=O)OCc1ccccc1)c1cccc(C[C@@H](NC(=O)[C@H](C)C=C)C(=O)OC)c1, 12-membered ring, Grubbs II (0.2 eq), microwave 45 min, DCE, 9.8 mM, 120.0 °C, 0.75 h): 53.2%

O=C1NCCCCC[C@H](n2cnc(-c3cc(Cl)ccc3-n3cc(Cl)nn3)cc2=O)c2cc(ccn2)[C@@H]2C[C@H]12 [Example 34, (2R,4S,12S)-12-{4-[5-Chloro-2-(4-chloro-1H-1,2,3-triazol-1-yl)phenyl]-6-oxo-1,6-dihydropyrimidin-1-yl}-6,14-diazatricyclo[11.3.1.0^2,^4]heptadeca-1(17),13,15-trien-5-one]
Ki [1]: 96 nM | Ki [2]: 3100 nM
